Measurements published in patent publication US8481495B2 (TetraLogic Pharmaceuticals Corporation, priority 2009, dated 2013).

Assays:
XIAP BIR-3 = molecular target: T1, XIAP BIR-3 (Homo sapiens, UniProt P98170); experiment: Fluorescence polarization binding to XIAP BIR-3 with labeled peptide AbuRPF-K(5-Fam)-NH2; details: XIAP BIR-3, 40 nM BIR3, 5 nM labeled peptide, 15 min RT, pH 7.5; read-out: XIAP, nM (binding affinity KD, as range)
T1 construct: 40 nM of the respective IAP BIR3
Experimental: (§1) The binding affinities of the compounds are reported as a KD value (μM). Briefly, various concentrations of test peptides were mixed with 5 nM of the fluorescently labeled peptide (i.e., a mutated N-terminal Smac peptide-AbuRPF-K(5-Fam)-NH2) and 40 nM of the respective IAP BIR3 for 15 min at RT in […] of 0.1M Potassium Phosphate buffer, pH 7.5 containing […] bovine g-globulin. Following incubation, the polarization values (mP) were measured on a Victor2V™ (available from PerkinElmer® Life Sciences) using a 485 nm excitation filter and a 520 nm emission filter. The reported binding affinities (KD values) are supplied as ranges (A=<0.1 μM, B=0.1 μM to 1 μM, C=>1 μM to 10 μM, D=>10 μM).

cIAP-1 BIR-3 = molecular target: T2, cIAP-1 BIR-3 (Homo sapiens, UniProt Q13490); experiment: Fluorescence polarization binding to cIAP-1 BIR-3 with labeled peptide AbuRPF-K(5-Fam)-NH2; details: cIAP-1 BIR-3, 40 nM BIR3, 5 nM labeled peptide, 15 min RT, pH 7.5; read-out: cIAP1, nM (binding affinity KD, as range)
T2 construct: 40 nM of the respective IAP BIR3
T2 sequence (Q13490 253-363 limits assumed): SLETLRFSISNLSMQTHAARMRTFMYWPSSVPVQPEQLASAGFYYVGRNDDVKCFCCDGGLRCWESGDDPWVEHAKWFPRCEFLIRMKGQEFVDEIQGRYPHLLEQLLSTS
Experimental: as §1

SK-OV-3 cells = experiment: MTT cell growth inhibition assay in ovarian cancer cell line SK-OV-3; assay type: cell-based; details: Homo sapiens, 72 hrs incubation, read-out: SKOV3, nM (CC50, concentration giving 50% cell survival, as range)
Experimental: Compounds of the invention also were tested for their ability to inhibit the growth of an ovarian cancer cell line, SK-OV-3. A known assay previously used for measuring cell growth (as described in Hansen, M. B., Nielsen, S. E., and Berg, K. (1989) J. Immunol. Methods 119, 203-210 and incorporated herein by reference in its entirety) was used. Briefly, SK-OV-3 cells are seeded in 96-well plates in McCoy's medium containing 10% fetal bovine serum albumin (5,000 per well) and incubated overnight at 37° C. The next day, test compounds are added at various concentrations (0.003-10 μM) and the plates are incubated at 37° C. for an additional 72 hrs. This incubation time was considered to be optimal for measuring inhibitory effects of the different compounds tested. 50 microliters of 5 mg/mL MTT reagent is added to each well and the plates are incubated at 37° C. for another three (3) hours. At the end of the three (3) hour incubation period, 50 microliters of DMSO is added to each well to dissolve cells and the optical density (OD) of the wells is measured with a microplate reader (Victor^2 1420™, Wallac, Finland) at 535 nm. Cell survival (CS) was calculated using the following equation: CS=(OD treated well/mean OD control wells)×100%.
The CC50 (reported in the following tables), is defined as the drug concentration that results in 50% cell survival (CS), and is derived by calculating the point where the dose-response curve crosses the 50% CS point using GraphPad Prism® graphing software. The reported CC50 values are supplied as ranges (A=<0.1 μM, B=0.1 μM to 1 μM, C=>1 μM to 10 μM, D=>10 μM).

T1 sequence (P98170 241-356 limits assumed): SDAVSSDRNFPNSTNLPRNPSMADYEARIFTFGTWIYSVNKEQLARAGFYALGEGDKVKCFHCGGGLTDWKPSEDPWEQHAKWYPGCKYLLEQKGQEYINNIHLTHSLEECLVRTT

CN[C@@H](C)C(=O)N[C@H](C(=O)N1CC[C@@H]2[C@H]1[C@@H](C(=O)N[C@@H]1CCCc3ccccc31)CN2C(C)=O)C(C)(C)C [Example 34, 1-Acetyl-4-[3,3-dimethyl-2-(2-methylamino-propionylamino)-butyryl]-octahydro-pyrrolo[3,2-b]pyrrole-3-carboxylic acid (1,2,3,4-tetrahydro-naphthalen-1-yl)-amide]
< 100 nM: Kd (XIAP BIR-3) | Kd (cIAP-1 BIR-3) | CC50 (SK-OV-3 cells)

CN[C@@H](C)C(=O)N[C@H](C(=O)N1CC[C@@H]2[C@H]1[C@@H](C(=O)NCc1ccc(F)cc1)CN2C(C)=O)C(C)(C)C [Example 35, 1-Acetyl-4-[3,3-dimethyl-2-(2-methylamino-propionylamino)-butyryl]-octahydro-pyrrolo[3,2-b]pyrrole-3-carboxylic acid 4-fluoro-benzylamide]
< 100 nM: Kd (XIAP BIR-3) | Kd (cIAP-1 BIR-3) | CC50 (SK-OV-3 cells)

CN[C@@H](C)C(=O)N[C@H](C(=O)N1CC[C@@H]2[C@H]1[C@@H](C(=O)N[C@@H]1CCCc3ccccc31)CN2C(C)=O)C1CCCCC1 [Example 36, 1-Acetyl-4-[2-cyclohexyl-2-(2-methylamino-propionylamino)-acetyl]-octahydro-pyrrolo[3,2-b]pyrrole-3-carboxylic acid (1,2,3,4-tetrahydro-naphthalen-1-yl)-amide]
< 100 nM: Kd (XIAP BIR-3) | Kd (cIAP-1 BIR-3) | CC50 (SK-OV-3 cells)

CN[C@@H](C)C(=O)N[C@H](C(=O)N1CC[C@@H]2[C@H]1[C@@H](C(=O)Nc1cccc3ccccc13)CN2C(C)=O)C(C)(C)C [Example 37, 1-Acetyl-4-[3,3-dimethyl-2-(2-methylamino-propionylamino)-butyryl]-octahydro-pyrrolo[3,2-b]pyrrole-3-carboxylic acid naphthalen-1-ylamide]
< 100 nM: Kd (XIAP BIR-3) | Kd (cIAP-1 BIR-3) | CC50 (SK-OV-3 cells)

CN[C@@H](C)C(=O)N[C@H](C(=O)N1CC[C@@H]2[C@H]1[C@@H](C(=O)NCc1ccccc1)CN2C(C)=O)C(C)(C)C [Example 38, 1-Acetyl-4-[3,3-dimethyl-2-(2-methylamino-propionylamino)-butyryl]-octahydro-pyrrolo[3,2-b]pyrrole-3-carboxylic acid benzylamide]
< 100 nM: Kd (XIAP BIR-3) | Kd (cIAP-1 BIR-3) | CC50 (SK-OV-3 cells)

CN[C@@H](C)C(=O)N[C@H](C(=O)N1CC[C@@H]2[C@H]1[C@@H](C(=O)N[C@@H]1CCCc3ccccc31)CN2C(=O)OC)C1CCCCC1 [Example 39, 4-[2-Cyclohexyl-2-(2-methylamino-propionylamino)-acetyl]-3-(1,2,3,4-tetrahydro-naphthalen-1-ylcarbamoyl)-hexahydro-pyrrolo[3,2-b]pyrrole-1-carboxylic acid methyl ester]
< 100 nM: Kd (XIAP BIR-3) | Kd (cIAP-1 BIR-3) | CC50 (SK-OV-3 cells)

CNC(=O)N1C[C@H](C(=O)N[C@@H]2CCCc3ccccc32)[C@@H]2[C@H]1CCN2C(=O)[C@@H](NC(=O)[C@H](C)NC)C(C)(C)C [Example 40, 4-[3,3-Dimethyl-2-(2-methylamino-propionylamino)-butyryl]-hexahydro-pyrrolo[3,2-b]pyrrole-1,3-dicarboxylic acid 1-methylamide 3-[(1,2,3,4-tetrahydro-naphthalen-1-yl)-amide]]
< 100 nM: Kd (XIAP BIR-3) | Kd (cIAP-1 BIR-3) | CC50 (SK-OV-3 cells)

CNC(=O)N1C[C@H](C(=O)NCc2ccc(F)cc2)[C@@H]2[C@H]1CCN2C(=O)[C@@H](NC(=O)[C@H](C)NC)C(C)(C)C [Example 41, 4-[3,3-Dimethyl-2-(2-methylamino-propionylamino)-butyryl]-hexahydro-pyrrolo[3,2-b]pyrrole-1,3-dicarboxylic acid 3-(4-fluoro-benzylamide) 1-methylamide]
< 100 nM: Kd (XIAP BIR-3) | Kd (cIAP-1 BIR-3) | CC50 (SK-OV-3 cells)
